# Reference: ChEMBL document CHEMBL6177980 (J Med Chem, 2025)
# Tests used:
# [1] = Stability in SIF assessed as compound degradation measured for 24 hrs by HPLC analysis; type: physicochemical; settings: simulated intestinal fluid (SIF), read-out: Drug degradation
# [2] = Stability of compound at pH 6.8 assessed as change in purity at 1 mg/ml incubated for 4 hrs by HPLC analysis; type: physicochemical; settings: buffer, pH 6.8, 4 h
# [3] = AUC (0 to t) in fasted Cynomolgus monkey at 2 mg/kg, iv by LC-MS/MS analysis; type: ADME, organism-based, Macaca fascicularis; settings: in vivo
# [4] = Cmax in fasted Sprague-Dawley rat at 10 mg/kg, po by LC-MS/MS analysis; type: ADME, organism-based; settings: in vivo
# [5] = Stability of compound at pH 4.0 assessed as change in purity at 1 mg/ml incubated for 12 hrs by HPLC analysis; type: physicochemical; settings: buffer, pH 4, 12 h
# [6] = Half life in fasted Cynomolgus monkey at 2 mg/kg, iv by LC-MS/MS analysis; type: ADME, organism-based, Macaca fascicularis; settings: in vivo
# [7] = Cmax in fasted Sprague-Dawley rat at 5 mg/kg, iv by LC-MS/MS analysis; type: ADME, organism-based; settings: in vivo
# [8] = Stability of compound at pH 4.0 assessed as change in purity at 1 mg/ml incubated for 24 hrs by HPLC analysis; type: physicochemical; settings: buffer, pH 4, 24 h
# [9] = Oral bioavailability in fasted Cynomolgus monkey at 5 mg/kg by LC-MS/MS analysis; type: ADME, organism-based, Macaca fascicularis; settings: in vivo
# [10] = AUC (0 to t) in fasted Sprague-Dawley rat at 5 mg/kg, iv by LC-MS/MS analysis; type: ADME, organism-based; settings: in vivo
# [11] = Half life in fasted Cynomolgus monkey at 5 mg/kg, po by LC-MS/MS analysis; type: ADME, organism-based, Macaca fascicularis; settings: in vivo
# [12] = Stability of compound at pH 4.0 assessed as change in purity at 1 mg/ml incubated for 4 hrs by HPLC analysis; type: physicochemical; settings: buffer, pH 4, 4 h
# [13] = Stability in SGF assessed as compound degradation measured for 24 hrs by HPLC analysis; type: physicochemical; settings: simulated gastric fluid (SGF), read-out: Drug degradation
# [14] = Stability of compound at pH 6.8 assessed as change in purity at 1 mg/ml incubated for 24 hrs by HPLC analysis; type: physicochemical; settings: buffer, pH 6.8, 24 h
# [15] = Stability of compound at pH 1.5 assessed as change in purity at 1 mg/ml incubated for 4 hrs by HPLC analysis; type: physicochemical; settings: buffer, pH 1.5, 4 h
# [16] = Stability of compound at pH 6.8 assessed as change in purity at 1 mg/ml incubated for 12 hrs by HPLC analysis; type: physicochemical; settings: buffer, pH 6.8, 12 h
# [17] = Stability of compound at pH 1.5 assessed as change in purity at 1 mg/ml incubated for 24 hrs by HPLC analysis; type: physicochemical; settings: buffer, pH 1.5, 24 h
# [18] = Cmax in fasted Cynomolgus monkey at 5 mg/kg, po by LC-MS/MS analysis; type: ADME, organism-based, Macaca fascicularis; settings: in vivo
# [19] = Stability of compound at pH 1.5 assessed as change in purity at 1 mg/ml incubated for 12 hrs by HPLC analysis; type: physicochemical; settings: buffer, pH 1.5, 12 h
# [20] = Cmax in fasted Cynomolgus monkey at 2 mg/kg, iv by LC-MS/MS analysis; type: ADME, organism-based, Macaca fascicularis; settings: in vivo
# [21] = AUC (0 to t) in fasted Sprague-Dawley rat at 10 mg/kg, po by LC-MS/MS analysis; type: ADME, organism-based; settings: in vivo
# [22] = AUC (0 to t) in fasted Cynomolgus monkey at 5 mg/kg, po by LC-MS/MS analysis; type: ADME, organism-based, Macaca fascicularis; settings: in vivo
# [23] = Oral bioavailability in fasted Cynomolgus monkey administered orally by LC-MS/MS analysis; type: ADME, organism-based, Macaca fascicularis; settings: in vivo
# [24] = AUC (0 to t) in fasted Sprague-Dawley rat at 21 mg/kg, po by LC-MS/MS analysis; type: ADME, organism-based; settings: in vivo
# [25] = Cmax in fasted Sprague-Dawley rat at 21 mg/kg, po by LC-MS/MS analysis; type: ADME, organism-based; settings: in vivo
# [26] = Aqueous solubility of compound; type: physicochemical; settings: aqueous medium
# [27] = AUC (0 to t) in fasted Sprague-Dawley rat at 16.5 mg/kg, po by LC-MS/MS analysis; type: ADME, organism-based; settings: in vivo
# [28] = Cmax in fasted Sprague-Dawley rat at 16.5 mg/kg, po by LC-MS/MS analysis; type: ADME, organism-based; settings: in vivo
# [29] = Cmax in fasted Sprague-Dawley rat at 19 mg/kg, po by LC-MS/MS analysis; type: ADME, organism-based; settings: in vivo
# [30] = AUC (0 to t) in fasted Sprague-Dawley rat at 19 mg/kg, po by LC-MS/MS analysis; type: ADME, organism-based; settings: in vivo
# [31] = AUC (0 to t) in fasted Sprague-Dawley rat at 24 mg/kg, po by LC-MS/MS analysis; type: ADME, organism-based; settings: in vivo
# [32] = Cmax in fasted Sprague-Dawley rat at 24 mg/kg, po by LC-MS/MS analysis; type: ADME, organism-based; settings: in vivo
# [33] = AUC (0 to t) in fasted Sprague-Dawley rat at 15.5 mg/kg, po by LC-MS/MS analysis; type: ADME, organism-based; settings: in vivo
# [34] = Cmax in fasted Sprague-Dawley rat at 15.5 mg/kg, po by LC-MS/MS analysis; type: ADME, organism-based; settings: in vivo
# [35] = Cmax in fasted Sprague-Dawley rat at 25 mg/kg, po by LC-MS/MS analysis; type: ADME, organism-based; settings: in vivo
# [36] = AUC (0 to t) in fasted Sprague-Dawley rat at 25 mg/kg, po by LC-MS/MS analysis; type: ADME, organism-based; settings: in vivo
Structure (SMILES),Activity [2],Activity [5],Activity [8],Activity [12],Activity [14],Activity [15],Activity [16],Activity [17],Activity [19],further results
O=c1ccn([C@@H]2O[C@](F)(CO)[C@@H](O)[C@H]2O)c(=O)[nH]1,-18.1%,-24.9%,-43.5%,-8.8%,-67.1%,-27.9%,-44.8%,-86.9%,-64.4%,degraded at 24 h [1]: > 80%; AUC(0-t) [3]: 4830 ng·h/mL; Cmax [4]: 1740 ng/mL; half-life [6]: 4.34 h; Cmax [7]: 2900 ng/mL; bioavailability [9]: 62.9%; AUC(0-t) [10]: 7810 ng·h/mL; half-life [11]: 5.13 h; degraded at 24 h [13]: > 80%; Cmax [18]: 2850 ng/mL; Cmax [20]: 2530 ng/mL; AUC(0-t) [21]: 13000 ng·h/mL; AUC(0-t) [22]: 11600 ng·h/mL
CC(=O)O[C@H]1[C@H](n2ccc(=O)n(COC(=O)c3cccnc3)c2=O)O[C@](F)(COC(=O)C(C)C)[C@H]1OC(C)=O,-6.7%,-0.1%,-0.2%,-0.1%,-31%,-2%,-16.4%,-10.4%,-5.6%,bioavailability [23]: 86.4%; AUC(0-t) [24]: 13500 ng·h/mL; Cmax [25]: 2190 ng/mL; solubility [26]: 410 µg/mL
CCOC(=O)OCn1c(=O)ccn([C@@H]2O[C@](F)(COC(=O)C(C)C)[C@@H](O)[C@H]2O)c1=O,,,,,,,,,,AUC(0-t) [27]: 15800 ng·h/mL; Cmax [28]: 2440 ng/mL
CC(C)C(=O)OC[C@@]1(F)O[C@@H](n2ccc(=O)n(COC(=O)c3cccnc3)c2=O)[C@@H]2OC(=O)O[C@@H]21,-45%,-5.4%,-10.5%,-1.9%,-88.3%,-2.1%,-76%,-9.5%,-5.5%,Cmax [29]: 1200 ng/mL; AUC(0-t) [30]: 9450 ng·h/mL
CC(C)C(=O)OC[C@@]1(F)O[C@@H](n2ccc(=O)n(COC(=O)[C@@H]3CCCN3)c2=O)[C@H](OC(=O)C(C)C)[C@@H]1OC(=O)C(C)C.Cl,-27.6%,-62.4%,-84.8%,-35.2%,-30.6%,-1.3%,-30.5%,-7.9%,-4.1%,AUC(0-t) [31]: 7590 ng·h/mL; Cmax [32]: 1370 ng/mL
CCC(=O)OC[C@@]1(F)O[C@@H](n2ccc(=O)n(COC(=O)c3cccnc3)c2=O)[C@H](OC(=O)CC)[C@@H]1OC(=O)CC,-1.9%,-0.1%,-0.1%,0%,-9.7%,-1.9%,-4.9%,-9.8%,-5.3%,
CCOC(=O)n1c(=O)ccn([C@@H]2O[C@](F)(COC(=O)C(C)C)[C@@H](O)[C@H]2O)c1=O,,,,,,,,,,AUC(0-t) [33]: 4650 ng·h/mL; Cmax [34]: 569 ng/mL
CC(C)C(=O)OC[C@@]1(F)O[C@@H](n2ccc(=O)n(COC(=O)[C@@H]3CCCN3C)c2=O)[C@H](OC(=O)C(C)C)[C@@H]1OC(=O)C(C)C.Cl,-62.9%,-29.8%,-52.7%,-10.9%,-95%,-1.5%,-95%,-7.6%,-3.6%,bioavailability [23]: 91%; Cmax [35]: 2150 ng/mL; AUC(0-t) [36]: 14200 ng·h/mL
